Laboratory results as given in PubChem BioAssay (NCI).
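In this assay, cells in 96-well plates receive the compound at five concentrations for 48 hours. Endpoints are linearly interpolated between the surrounding concentrations. The concentration for 50% growth inhibition is given as GI50. The concentration for full growth arrest is given as TGI.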

Legend:
Assay in all cases: NCI anticancer screen, dose series, 48 h
DLD-1 colon = test system: DLD-1 colon
DMS 273 small cell lung = test system: DMS 273 small cell lung
HOP-18 NSCLC = test system: HOP-18 NSCLC
RXF-631 renal = test system: RXF-631 renal
SNB-78 CNS = test system: SNB-78 CNS
XF 498 CNS = test system: XF 498 CNS
KM20L2 colon = test system: KM20L2 colon
LXFL 529 NSCLC = test system: LXFL 529 NSCLC

| Compound | TGI (DLD-1 colon) | TGI (DMS 273 small cell lung) | TGI (HOP-18 NSCLC) | TGI (RXF-631 renal) | TGI (SNB-78 CNS) | TGI (XF 498 CNS) | TGI (KM20L2 colon) | TGI (LXFL 529 NSCLC) | GI50 (DLD-1 colon) | GI50 (DMS 273 small cell lung) | GI50 (HOP-18 NSCLC) | GI50 (KM20L2 colon) | GI50 (LXFL 529 NSCLC) | GI50 (XF 498 CNS) |
| --- | --- | --- | --- | --- | --- | --- | --- | --- | --- | --- | --- | --- | --- | --- |
| c1cncc(O[Si](Oc2cccnc2)(Oc2cccnc2)Oc2cccnc2)c1 | > 100 µM | > 100 µM | > 100 µM | > 100 µM | > 100 µM | > 100 µM |  |  |  |  |  |  |  |  |
| Nc1c(-c2ccccc2[N+](=O)[O-])nc2ccccn12 | > 100 µM | > 100 µM |  |  |  |  | > 100 µM | > 100 µM |  |  |  |  |  |  |
| C[CH2][Ge]([CH2]C)([CH2]C)[O]C(=O)CCC(=O)[O][Ge]([CH2]C)([CH2]C)[CH2]C | > 100 µM | > 100 µM | > 100 µM |  |  | > 100 µM | > 100 µM | > 100 µM | 38.7 µM | 85.9 µM | > 100 µM | > 100 µM | 42.5 µM | > 100 µM |
